Measurements reported in patent US8969590B1, “Autotaxin inhibitors” (University of Memphis Research Foundation, priority 2007, dated 2015).

Tests used:
ATX (autotaxin) = target: T1, ATX (autotaxin) (Homo sapiens, UniProt Q13822); assay: ATX inhibition assay: ATX-catalyzed FS-3 hydrolysis, fluorescence, concentrated conditioned medium from MDA MB-435 cells as ATX source; type: biochemical; settings: for % ATX Activity at 10 μM: 10 μM compound, FS-3 substrate, read at 1 hour, normalized to vehicle control, mean ± S.D. of at least three wells
T1 construct: conditioned serum-free medium (CCM) from MDA MB-435 cells as the source of ATX; endogenous in cells; host or cells: MDA-MB-435 cells (secreted into serum-free conditioned medium, concentrated ~10 fold)
Description: The efficacy of these compounds was determined by evaluating fluorescence of autotaxin at specific wavelengths. The test protocol was as follows:
In terms of ATX inhibition analysis determinations, MDA-MB-435 cells were cultured at 37° C. and 5% CO2 in Dulbecco's Modified Eagle Medium (DMEM) (MediaTech, Herndon, Va.) containing 5% fetal bovine serum (Hyclone, Logan, Utah), 100 U/ml penicillin, 100 μg/ml streptomycin (Hyclone, Logan, Utah) and 292 μg/ml L-glutamine (Hyclone, Logan, Utah). Cells were grown to ˜80% confluence at which time the cells were washed twice with sterile phosphate buffered saline prior to the addition of serum free DMEM containing L-glutamine. Conditioned medium was collected after 24-30 hours, supplemented with 20% ethylene glycol and was clarified by centrifugation at 3000×g and 4° C. for 10 min. The media was concentrated ˜10 fold and buffer exchanged into Tris (50 mM, pH 7.4) containing 20% ethylene glycol using an Amicon 8050 cell fitted with a PM30 filter (Millipore, Billerica, Mass.). Aliquots of concentrated conditioned media were stored at 4° C. until needed.
ATX inhibition was assayed using FS-3 (Echelon Biosciences, Inc., Salt Lake City, Utah, USA) as a substrate and ˜10 times concentrated conditioned serum-free medium (CCM) from MDA MB-435 cells as the source of ATX. Assays were performed in 96-well plates with CCM comprising one-third of the total volume and final FS-3 and charcoal-stripped fatty acid free BSA concentrations of 1 and 30 μM in assay buffer (1 mM each CaCl2 and MgCl2, 5 mM KCl, 140 mM NaCl, 50 mM Tris pH 8.0). Fluorescence was read at 5 minute intervals by a Synergy2 system (BioTek, Winooski, Vt.) with excitation and emission wavelengths of 485 and 538 nm, respectively. Results are shown at 1 hour, at which point all fluorescence changes as a function of time were linear. Fluorescence readings were normalized to vehicle control after subtraction of fluorescence in the absence of CCM. Data are shown as the mean±S.D. of at least three wells.

ATX = ATX (Homo sapiens, UniProt Q13822); settings: prior art; cited from earlier work

Compound | % ATX Activity at 10 μM (ATX (autotaxin)) [%] | also measured
O=C(O)c1ccc(NC(=O)c2ccc3c(c2)C(=O)N(c2ccc(/N=N/c4ccccc4)cc2)C3=O)cc1 [Compound 5564676] | – | ATX inhibition (reduction of ATX-catalyzed FS-3 hydrolysis) (ATX (autotaxin); 10 μM concentration): no reduction levels at all
O=C(NN1C(=O)c2ccc(C(=O)c3ccc4c(c3)C(=O)N(NC(=O)c3ccncc3)C4=O)cc2C1=O)c1ccncc1 [Compound 5538444] | 31 ± 4 | –
O=C(O)c1cccc(NC(=O)c2ccc3c(c2)C(=O)N(c2ccc(/N=N/c4ccccc4)cc2)C3=O)c1 [Compound 5564949] | 45 ± 10 | inhibition at 10 µM (ATX (autotaxin); 10 μM concentration, read-out: ATX inhibition (reduction of ATX-catalyzed FS-3 hydrolysis)): 51%
N[C@@H](Cc1c[nH]cn1)C(=O)O [L-histidine] | – | Concentration required for ATX inhibition efficacy (ATX): millimolar concentrations were required for any efficacy
O=C(O)c1ccc(Oc2ccc(C(=O)c3ccc4c(c3)C(=O)N(c3cccc5ccccc35)C4=O)cc2)cc1 [Compound 5210574] | 31 ± 5 | –
O=C(O)c1cc(C(=O)O)cc(N2C(=O)c3ccc(C(=O)c4ccc5c(c4)C(=O)N(c4cc(C(=O)O)cc(C(=O)O)c4)C5=O)cc3C2=O)c1 [Compound 5186522] | 49 ± 10 | –

More lines, main results first:

% ATX Activity at 10 μM (ATX (autotaxin)) [%] | Compound | also measured
48 ± 5 | O=C(O)c1ccc2c(c1)C(=O)N(c1cccc(C(=O)Nc3cccc(Cl)c3)c1)C2=O [Compound 5711925] | –
46 ± 6 | O=C(O)c1ccc(CN2C(=O)c3ccc(C(=O)c4ccc5c(c4)C(=O)N(Cc4ccc(C(=O)O)cc4)C5=O)cc3C2=O)cc1 [Compound 5761473] | –
21 ± 6 | CCn1c(SCC(=O)Nc2ccc(C(C)=O)cc2)nc2nc3c(cc2c1=O)CCCC3 [Compound 7921385] | –
